# Test results from patent EP1374909A2, “Evaluation of, delivery of, and use of agents to treat heart disorders” (THE GENERAL HOSPITAL CORPORATION, priority 1997, dated 1999).
# Test system: neonatal cardiomyocytes
# Test: Intracellular Ca2+ measurements (fura 2) and cell shortening detection
# Type: cell-based, rats
# Settings: maximal isoproterenol stimulation; uninfected and Ad.RSV.PL-infected (10 pfu/cell) cardiomyocytes, 1 Hz
# Description: Spontaneously beating cardiomyocytes were prepared from 1 to 2 day old rats and cultured in P-10 medium (GIBCO,BRL) in the presence of 5% fetal calf serum and 10% horse serum for 3 days as described previously in Kang J.X. et al., Proc. Natl. Acad. Sci. U.S.A., 1995, 92:[…] and Kang J.X. and Leaf A., Euro. J. Pharmacol., 1996, 297:97-106, the contents of which are incorporated herein by reference. Measurements of cell shortening and cytosolic Ca^2+ were performed on neonatal cardiomyocytes cultured on round, coated, glass coverslips (0.1 mm thickness, 31 mm diameter) in 35 mm culture dishes. Cells were counted using a hemocytometer. Approximately 5x10^5 cells were plated in each coverslip.
# Measurements of intracellular Ca^2+ and cell shortening were performed as described earlier in Hajjar et al. (1997), Kang et al. (1995) and Kang et al (1996), the contents of which are incorporated herein by reference. […] A dual excitation spectrofluorometer (IONOPTIX) was used to record fluorescence emissions (505 nm) elicited from exciting wavelengths of 360 and 380 nm. […] High-contrast microspheres attached to the cell surface of the cardiomyocytes were imaged using a charge-coupled device video camera attached to the microscope, and motion along a selected raster line segment who quantified by a video motion detector system (IONOPTIX).
smiles,measurement,value
CC(C)NCC(O)c1ccc(O)c(O)c1 (stereo not shown) [isoproterenol],time course of the Ca^2+ transients,decreased to the same level
